Earlier results, collected in US5876715A, “Antibodies that bind novel carbohydrate ligands (myelorollins) that cause E-selectin dependent cell rolling, and uses thereof” (The Biomembrane Institute, priority 1996, dated 1999).

Experiments:
[1] = tested on: E-selectin expressing CHO cells; conditions: shear stress of 0.78 dyne/cm^2; J. Immunol. 154:5356-5366 (1995); cited from earlier work
[2] = rat, IgG immune complex lung injury; Mulligan et al. 1993; cited from earlier work

IV^3 NeuAcIII^3 FucnLc4 Cer [SLe^x]
tethering of E-selectin expressing CHO cells [1]: tethered | effect against inflammatory vascular injury [2]: provides protective effects against inflammatory vascular injury
